# Measurements published in patent US10780074B2, “Compounds and uses thereof” (Sunovion Pharmaceuticals Inc., priority 2017, dated 2020).
# Where a name gives a salt, the structure may show the parent alone.
# Tested on: behaviors of compound-treated mice
# Experiment: Neuropharmacological Assay (SmartCube)
# Assay type: in vivo
# Settings: for minimal effective dose: Mus musculus, ip, 0.25 h, dose having 50% or more total activity in SmartCube, i.p., read-out: MED (minimal effective dose); for AD: ADHD (probability that activity matches class) / AG: analgesic (probability that activity matches class) / AX: anxiolytic (probability that activity matches class) / CE: cognitive enhancer (probability that activity matches class) / DP: anti-depressant (probability that activity matches class) / MS: mood stabilizer (probability that activity matches class) / PS: anti-psychotic (probability that activity matches class) / SD: sedative hypnotic (probability that activity matches class) / UN: uncharacterized CNS activity (probability that activity matches class): i.p. 15 min before behavioral test, most efficacious dose(s) of 3 doses
# From the text: Neuropharmacological Assay (SmartCube™)
# Neurosci. 2011 Sep. 9; 5:103 (doi: 10.3389/fnins.2011.00103) (“Roberds”). As reported in Roberds, because psychiatric diseases generally result from disorders of cell-cell communication or circuitry, intact systems are useful in detecting improvement in disease-relevant endpoints. These endpoints are typically behavioral in nature, often requiring human observation and interpretation. To facilitate testing of multiple compounds for behavioral effects relevant to psychiatric disease, PsychoGenics, Inc. (Tarrytown, N.Y., “PGI”) developed SmartCube™, an automated system in which behaviors of compound-treated mice are captured by digital video and analyzed with computer algorithms. (D. Brunner et al., Drug Discov. Today 2002, 7:S107-S112). PGI Analytical Systems uses data from SmartCube™ to compare the behavioral signature of a test compound to a database of behavioral signatures obtained using a large set of diverse reference compounds. (The composition of the database as well as validation of the method is further described in Roberds). In this way, the neuropharmacological effects of a test compound can be predicted by similarity to major classes of compounds, such as antipsychotics, anxiolytics and antidepressants.
# The SmartCube™ system produces an activity signature indicating the probability that the activity of the test compound at the administered dose matches a given class of neuropharmacological agents. (See, e.g., Roberds, FIGS. 2 and 3). The test compound is simultaneously compared against multiple classes of agents; thus, a separate probability is generated for each behavioral effect measured (e.g., anxiolytic activity, analgesic activity, etc.). In the table below, these probabilities are reported for each behavioral effect measured as follows:
# Provided compounds were dissolved in a mixture of Pharmasolve™ (N-methyl-2-pyrrolidone), polyethylene glycol and propylene glycol, and were injected i.p. 15 min. before the behavioral test. For each compound, injections were administered at 3 different doses. For each behavioral effect measured, results for the most efficacious dose(s) are presented. In the table below, DP: anti-depressant; AX: anxiolytic; SD: sedative hypnotic; PS: anti-psychotic; MS: mood stabilizer; AD: ADHD; CE: cognitive enhancer; AG: analgesic; UN: uncharacterized CNS activity.
# The potency of many of the compounds in the table was also determined in the SmartCube™ system. Test compounds were routinely examined at dose levels of 0.3, 1, 3 10 and 30 mg per kg (mpk), although the dose range was increased or decreased if necessary to obtain a full dose response curve. A compound's minimal effective dose (MED) is a measure of the compounds potency. The MED was defined as the dose (in mpk) having 50% or more total activity in SmartCube.
SMILES,minimal effective dose [mg/kg],AD: ADHD (probability that activity matches class),AG: analgesic (probability that activity matches class),AX: anxiolytic (probability that activity matches class),CE: cognitive enhancer (probability that activity matches class),DP: anti-depressant (probability that activity matches class),MS: mood stabilizer (probability that activity matches class),PS: anti-psychotic (probability that activity matches class),SD: sedative hypnotic (probability that activity matches class),UN: uncharacterized CNS activity (probability that activity matches class)
"CNC[C@@H]1OCCc2c(-c3cccnc3)cccc21 (single isomer, unassigned) [Compound 7, bis-hydrochloride]",10 to 30,++ (5% ≤ ++ <25%),+ (LOQ ≤ + <5%),++ (5% ≤ ++ <25%),+ (LOQ ≤ + <5%),+++ (25% ≤ +++ <50%),+ (LOQ ≤ + <5%),+ (LOQ ≤ + <5%),+ (LOQ ≤ + <5%),+ (LOQ ≤ + <5%)
"NC[C@@H]1OCCc2c(-c3cn[nH]c3)cccc21 [Compound 116, (R)-(5-(1H-pyrazol-4-yl)isochroman-1-yl)methanamine hydrochloride salt]",3 to 10,+ (LOQ ≤ + <5%),+ (LOQ ≤ + <5%),++ (5% ≤ ++ <25%),+ (LOQ ≤ + <5%),++++ (50% ≤ ++++),+ (LOQ ≤ + <5%),++ (5% ≤ ++ <25%),+ (LOQ ≤ + <5%),++ (5% ≤ ++ <25%)
"CNC[C@@H]1OCCc2c(-c3ccncc3)cccc21 [Compound 17, (R)—N-Methyl(5-(pyridin-4-yl)isochroman-1-yl)methanamine dihydrochloride salt]",≤ 3,++ (5% ≤ ++ <25%),+ (LOQ ≤ + <5%),+ (LOQ ≤ + <5%),+ (LOQ ≤ + <5%),++++ (50% ≤ ++++),+ (LOQ ≤ + <5%),+ (LOQ ≤ + <5%),++ (5% ≤ ++ <25%),++ (5% ≤ ++ <25%)
"NC[C@@H]1OCc2c(-c3cccnc3)cccc21 [Compound 35, (R)-(4-(Pyridin-3-yl)-1,3-dihydroisobenzofuran-1-yl)methanamine hydrochloride]",3 to 10,++ (5% ≤ ++ <25%),+ (LOQ ≤ + <5%),++ (5% ≤ ++ <25%),+ (LOQ ≤ + <5%),++++ (50% ≤ ++++),+ (LOQ ≤ + <5%),+ (LOQ ≤ + <5%),+ (LOQ ≤ + <5%),+ (LOQ ≤ + <5%)
"CNC[C@@H]1OCCc2c(-c3cncnc3)cccc21 (single isomer, unassigned) [Compound 29, hydrochloride salt]",> 30,+ (LOQ ≤ + <5%),+ (LOQ ≤ + <5%),+ (LOQ ≤ + <5%),+ (LOQ ≤ + <5%),+ (LOQ ≤ + <5%),+ (LOQ ≤ + <5%),+ (LOQ ≤ + <5%),+ (LOQ ≤ + <5%),+ (LOQ ≤ + <5%)
"NC[C@@H]1OCCc2ccc(-c3ccncc3)cc21 [Compound 47, (R)-(7-(pyridin-4-yl)isochroman-1-yl)methanamine hydrochloride]",3 to 10,+ (LOQ ≤ + <5%),+ (LOQ ≤ + <5%),++ (5% ≤ ++ <25%),+ (LOQ ≤ + <5%),++++ (50% ≤ ++++),+ (LOQ ≤ + <5%),++ (5% ≤ ++ <25%),+ (LOQ ≤ + <5%),+ (LOQ ≤ + <5%)
"CNC[C@@H]1OCCc2c(-c3cn[nH]c3)cccc21 [Compound 118, (R)-1-(5-(1H-pyrazol-4-yl)isochroman-1-yl)-N-methylmethanamine hydrochloride salt]",10 to 30,+ (LOQ ≤ + <5%),++ (5% ≤ ++ <25%),++ (5% ≤ ++ <25%),+ (LOQ ≤ + <5%),++ (5% ≤ ++ <25%),+ (LOQ ≤ + <5%),+ (LOQ ≤ + <5%),+++ (25% ≤ +++ <50%),++ (5% ≤ ++ <25%)
"CNC[C@H]1OCCCc2c(-c3ccncc3)cccc21 (single isomer, unassigned) [Compound 149]",≤ 3,++ (5% ≤ ++ <25%),+ (LOQ ≤ + <5%),++ (5% ≤ ++ <25%),+ (LOQ ≤ + <5%),++++ (50% ≤ ++++),+ (LOQ ≤ + <5%),+ (LOQ ≤ + <5%),+ (LOQ ≤ + <5%),++ (5% ≤ ++ <25%)
